pIC50: −log10 of the molar value.
Molecular target: T1, α4β1 integrin (Homo sapiens, UniProt P05556+P13612)
T1 construct: a T-cell line, Jurkat, known to express the α4β1 integrin; host or cells: Jurkat T-cell line
Assay: Jurkat-Endothelial Cell Adhesion Assay (Jurkat EC)
Type: cell-based
Details: Jurkat cell adhesion to IL-1 stimulated endothelial cell monolayers
Experimental: The following assay established the activity of the present compounds in inhibiting β1-mediated cell adhesion in a representative in vitro system. This assay measures the adhesive interactions of a T-cell line, Jurkat, known to express the α4β1 integrin, to endothelial monolayers in the presence of test compounds. The test compounds were added in increasing concentrations to T-cells and then the T-cell compound mixture was added to IL-1 stimulated endothelial cell monolayers. The plates were incubated, washed and the percentage of attached cells was quantitated.
Human umbilical vein endothelial cells were purchased from Clonetics (San Diego, CA.) at passage number 2. The cells were grown on 0.5% porcine skin gelatin pre-coated flasks (Sigma, St. Louis MO.) in EGM-UV media (Clonetics, San Diego, CA) supplemented with 10% fetal bovine serum. Cells are refed every 2-3 days reaching confluence by day 4 to 6. […] The endothelial cells are not used following passage 6.
The T-cell line Jurkat was obtained from American Type Tissue Culture Collection (Rockville, MD) and the cells were cultured in RPMI containing 10 % fetal calf serum. The cells were washed twice in Hank's Balanced Salt Solution (HBSS) and resuspended in Dulbecco's Minimal Eagle's Media (DMEM) containing 2.5 mg/ml Human Serum Albumin (HSA). Jurkat cells (1x10^6 cells/ml) were stained with 10 ng/ml BCECF-AM (Molecular Probes, Eugene, OR)) in HBSS without phenol red. The cells were loaded with BCECF for 60 minutes in the dark at 37°C, washed 2 times, and resuspended in DMEM-HSA solution.
Confluent endothelial monolayers, grown in 96-well tissue culture plates, were stimulated for 4 hr. at 37 °C with 0.1 ng/ml (∼50 U/ml) recombinant IL-1 (Amgen, Thousand Oaks, CA). Following this incubation, the monolayers were washed twice with HBSS and 0.1 ml of DMEM-HSA solution was added. Jurkat cells (5 x 10^5 cells) were combined with the appropriate concentration of the test compound and 0.1 ml of the Jurkat cell-compound mixture was added to the endothelial cell monolayers. Generally, 100, 20, 5 and 1.25 µM compound concentrations were tested. […] Following this incubation, the monolayers were washed twice with PBS containing 1 mM calcium chloride and 1 mM magnesium chloride' and the plates were read using a Millipore Cytofluor 2300 (Marlboro, MA.). Fluorescence in each well was measured as Arbitrary Fluorescence Units and percent adhesion in the absence of compound was adjusted to 100% and the % adhesion in the presence of compound was calculated. Monolayers were also fixed in 3% paraformaldehyde and evaluated microscopically to verify the adhesion. This procedure is a modification of a previously published method (Cardarelli et al., J. Biol. Chem. 269:18668-18673 (1994)).

T1 sequence (P13612 34-1032): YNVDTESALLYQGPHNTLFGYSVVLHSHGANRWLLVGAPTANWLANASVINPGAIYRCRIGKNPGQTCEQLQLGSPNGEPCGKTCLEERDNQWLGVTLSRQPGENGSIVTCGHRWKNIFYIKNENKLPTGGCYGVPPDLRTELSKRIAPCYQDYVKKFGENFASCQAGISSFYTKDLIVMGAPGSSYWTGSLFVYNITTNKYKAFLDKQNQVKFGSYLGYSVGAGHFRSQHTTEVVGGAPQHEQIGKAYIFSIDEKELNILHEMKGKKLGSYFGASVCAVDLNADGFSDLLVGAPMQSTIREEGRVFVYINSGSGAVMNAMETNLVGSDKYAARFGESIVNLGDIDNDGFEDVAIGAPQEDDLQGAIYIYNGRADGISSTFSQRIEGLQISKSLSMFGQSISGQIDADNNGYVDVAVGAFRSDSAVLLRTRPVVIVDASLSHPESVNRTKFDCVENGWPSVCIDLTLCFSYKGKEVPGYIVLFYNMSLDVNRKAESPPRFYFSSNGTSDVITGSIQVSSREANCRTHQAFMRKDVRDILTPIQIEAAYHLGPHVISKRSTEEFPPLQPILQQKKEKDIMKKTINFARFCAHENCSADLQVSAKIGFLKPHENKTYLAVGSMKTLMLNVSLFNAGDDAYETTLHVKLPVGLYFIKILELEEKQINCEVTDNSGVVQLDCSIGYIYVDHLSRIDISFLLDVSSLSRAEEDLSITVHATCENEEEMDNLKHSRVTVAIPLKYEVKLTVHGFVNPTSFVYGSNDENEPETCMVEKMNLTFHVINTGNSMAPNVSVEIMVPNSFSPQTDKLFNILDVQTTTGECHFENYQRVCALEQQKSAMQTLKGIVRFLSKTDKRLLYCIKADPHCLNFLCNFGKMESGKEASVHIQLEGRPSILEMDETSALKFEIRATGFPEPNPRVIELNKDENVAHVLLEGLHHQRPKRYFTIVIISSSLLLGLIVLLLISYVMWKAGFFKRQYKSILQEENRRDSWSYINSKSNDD
T1 sequence (P05556 21-798): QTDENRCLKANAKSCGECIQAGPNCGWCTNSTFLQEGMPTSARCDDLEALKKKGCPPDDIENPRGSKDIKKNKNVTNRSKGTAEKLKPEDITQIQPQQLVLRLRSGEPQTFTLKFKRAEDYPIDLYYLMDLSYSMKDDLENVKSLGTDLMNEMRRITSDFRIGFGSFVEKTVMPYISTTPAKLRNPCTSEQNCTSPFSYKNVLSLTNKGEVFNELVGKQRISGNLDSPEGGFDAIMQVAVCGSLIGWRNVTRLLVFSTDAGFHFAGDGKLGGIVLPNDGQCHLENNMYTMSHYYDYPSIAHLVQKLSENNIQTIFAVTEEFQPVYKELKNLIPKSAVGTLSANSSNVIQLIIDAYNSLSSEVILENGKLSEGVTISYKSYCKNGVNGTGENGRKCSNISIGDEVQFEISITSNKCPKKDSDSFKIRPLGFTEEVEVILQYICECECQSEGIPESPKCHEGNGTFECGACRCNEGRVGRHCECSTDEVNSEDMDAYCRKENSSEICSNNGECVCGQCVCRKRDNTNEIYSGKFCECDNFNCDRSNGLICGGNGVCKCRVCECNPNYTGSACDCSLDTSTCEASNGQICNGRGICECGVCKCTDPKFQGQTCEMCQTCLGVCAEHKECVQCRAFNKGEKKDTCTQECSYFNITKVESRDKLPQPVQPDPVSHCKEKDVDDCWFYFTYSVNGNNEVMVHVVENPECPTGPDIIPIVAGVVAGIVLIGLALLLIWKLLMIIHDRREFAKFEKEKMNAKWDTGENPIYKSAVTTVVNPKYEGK

`O=C(Nc1ccc(C[C@H](NC(=O)[C@H]2CC[C@@H](C(=O)O)C2)C(=O)O)cc1)c1c(Cl)cccc1Cl` (mixture of isomers) [Example 112, N-[cis-(3-Carboxycyclopentyl)carbonyl]-4-[(2,6-dichlorobenzoyl)amino]-L-phenylalanine] and `O=C(Nc1ccc(C[C@H](NC(=O)[C@@H]2CCC[C@H]2C(=O)O)C(=O)O)cc1)c1c(Cl)cccc1Cl` [Example 9] fall in the same range of pIC50: 5.30 to 6.10 for the first, 5.30 to 6.10 for the second.

`O=C(O)c1cccc(C(=O)N[C@H]2CCCC[C@H]2C(=O)N[C@@H](Cc2ccc(NC(=O)c3c(Cl)cccc3Cl)cc2)C(=O)O)n1` (relative stereo) [Example 80] and `O=C(Nc1ccc(CC(NC(=O)C2CCCCC2C(=O)O)C(=O)O)cc1)c1c(Cl)cccc1Cl` (centres unmarked) [Example 8] fall in the same range of pIC50: 5.30 to 6.10 for the first, 5.30 to 6.10 for the second.

`CC1(C)[C@@H](C(=O)N[C@@H](Cc2ccc(OCc3c(Cl)cccc3Cl)cn2)C(=O)O)C[C@H]1C(=O)O` (relative stereo) [Example 109, [1S-[1α(R*),3α]]-α-[[(3-Carboxy-2,2-dimethylcyclobutyl)carbonyl]amino]-3-[(2,6-dichlorophenyl)methoxy]-6-pyridinepropanoic acid] and `CC1(C)[C@@H](C(=O)N[C@@H](Cc2ccc(NC(=O)c3ccc(Cl)nc3Cl)cc2)C(=O)O)C[C@H]1C(=O)O` [Example 108, (1S-cis)-N-[(3-Carboxy-2,2-dimethylcyclobutyl)carbonyl] -4-[[(2,6-dichloro-3-pyridinyl)carbonyl]amino]-L-phenylalanine] fall in the same range of pIC50: 5.30 to 6.10 for the first, 5.30 to 6.10 for the second.

`O=C(N[C@@H](Cc1ccc(NC(=O)c2c(Cl)cccc2Cl)cc1)C(=O)O)c1ccc(O)c(CN2CCOCC2)c1` [Example 4] and `CC(Oc1cccc(C(=O)O)c1)C(=O)N[C@@H](Cc1ccc(NC(=O)c2c(Cl)cccc2Cl)cc1)C(=O)O` (some centres unmarked) [Example 14] fall in the same range of pIC50: 5.30 to 6.10 for the first, 5.30 to 6.10 for the second.

First: O=C(Nc1ccc(C[C@H](NC(=O)N2CCCC[C@H]2C(=O)O)C(=O)O)cc1)c1c(Cl)cccc1Cl [Example 11]
Second: O=C(Nc1ccc(C[C@H](NC(=O)N2CCC(C(=O)O)CC2)C(=O)O)cc1)c1c(Cl)cccc1Cl [Example 113, 1-[[[(1S)-1-carboxy-2-[4-[(2,6-dichlorobenzoyl)amino]phenyl]ethyl]amino]carbonyl]-4-piperidinecarboxylic acid]
The pIC50 of the first is lower: 5.00 to 5.30 for the first, 5.30 to 6.10 for the second. The second is the more potent here.

`CC(C)(Oc1cccc(C(=O)O)c1)C(=O)N[C@@H](Cc1ccc(NC(=O)c2c(Cl)cccc2Cl)cc1)C(=O)O` [Example 15] and `CC(=O)c1cccc(OC(C)(C)C(=O)N[C@@H](Cc2ccc(NC(=O)c3c(Cl)cccc3Cl)cc2)C(=O)O)c1` [Example 19] fall in the same range of pIC50: 5.30 to 6.10 for the first, 5.30 to 6.10 for the second.

`O=C(O)c1cccc(OC(C(=O)N[C@@H](Cc2ccc(NC(=O)c3c(Cl)cccc3Cl)cc2)C(=O)O)c2ccccc2)c1` (some centres unmarked) [Example 16] and `CC(=O)c1cccc(OC(C)C(=O)N[C@@H](Cc2ccc(NC(=O)c3c(Cl)cccc3Cl)cc2)C(=O)O)c1` (some centres unmarked) [Example 18] fall in the same range of pIC50: 5.30 to 6.10 for the first, 5.30 to 6.10 for the second.

First: CC(Oc1cccc(/C=C/C(=O)O)c1)C(=O)N[C@@H](Cc1ccc(NC(=O)c2c(Cl)cccc2Cl)cc1)C(=O)O (some centres unmarked) [Example 21]
Second: CC(C)(Oc1cccc(/C=C/C(=O)O)c1)C(=O)N[C@@H](Cc1ccc(NC(=O)c2c(Cl)cccc2Cl)cc1)C(=O)O [Example 22]
The pIC50 of the first is lower: 5.00 to 5.30 for the first, 5.30 to 6.10 for the second.

First: CC(Sc1ccccc1C(=O)O)C(=O)N[C@@H](Cc1ccc(NC(=O)c2c(Cl)cccc2Cl)cc1)C(=O)O (some centres unmarked) [Example 24]
Second: CC(Oc1ccccc1C(=O)O)C(=O)N[C@@H](Cc1ccc(NC(=O)c2c(Cl)cccc2Cl)cc1)C(=O)O (some centres unmarked) [Example 28]
The pIC50 of the first is lower: 5.00 to 5.30 for the first, 5.30 to 6.10 for the second.

`O=C(N[C@@H](Cc1ccc(NC(=O)c2c(Cl)cccc2Cl)cc1)C(=O)O)c1cccc(NC(=O)c2ccccc2C(=O)O)c1` [Example 41] and `O=C(/C=C1/CCCc2c(C(=O)O)cccc21)N[C@@H](Cc1ccc(NC(=O)c2c(Cl)cccc2Cl)cc1)C(=O)O` [Example 137, N-[(1Z)-5-Carboxy-3,4-dihydro-1(2H)-naphthalenylideneacetyl]-4-[(2,6-dichlorobenzoyl)amino] -L-phenylalanine] fall in the same range of pIC50: 5.00 to 5.30 for the first, 5.00 to 5.30 for the second.

First: CC1(C)[C@H](CC(=O)N[C@@H](Cc2ccc(NC(=O)c3c(Cl)cccc3Cl)cc2)C(=O)O)C[C@@H]1C(=O)O [Example 90, (1S-cis)-N-[(3-Carboxy-2,2-dimethylcyclobutyl)acetyl]-4-[(2,6-dichlorobenzoyl)amino]-L-phenylalanine]
Second: CC(O)[C@@H]1C[C@H](CC(=O)N[C@@H](Cc2ccc(NC(=O)c3c(Cl)cccc3Cl)cc2)C(=O)O)C1(C)C (stereo partly drawn) [Example 92, [1R-(1α,3α)]-4-[(2,6-Dichlorobenzoyl)amino]-N-[[3-(1-hydroxyethyl)-2,2-dimethylcyclobutyl]acetyl]-L-phenylalanine]
The pIC50 of the first is lower: 5.00 to 5.30 for the first, 5.30 to 6.10 for the second.

In the case of `CC1=C(C(=O)O)C(C)(C)CC/C1=C\C(=O)N[C@@H](Cc1ccc(NC(=O)c2c(Cl)cccc2Cl)cc1)C(=O)O` [Example 121, N-[(1E)-3-Carboxy-2,4,4-trimethyl-2-cyclohexen-1-ylideneacetyl]-4-[(2,6-dichlorobenzoyl)amino]-L-phenylalanine], the pIC50 was 5.30 to 6.10.

Molecular target: T2, α4β1 (Homo sapiens, UniProt P05556+P13612)
T2 construct: 100 µl of Jurkat cells (2.5 x 10^6 cells/ml) in DMEM plus BSA; host or cells: Jurkat T-cell line
T2 sequence (P13612 34-1032): as the sequence (P13612 34-1032) above
T2 sequence (P05556 21-798): as the sequence (P05556 21-798) above
Assay: Jurkat-CS-1 assay
Type: cell-based
Details: Jurkat cell adhesion to immobilized CS-1 derived peptide
Experimental: The CS-1 derived peptide, CLHPGEILDVPST, and the scrambled control peptide, CLHGPIELVSDPT, were synthesized on a Beckman 990 synthesizer using t-Boc methodology. The peptides were immobilized onto microtiter plates using the heterobifunctional crosslinker 3-(2-pyridyldithio)propionic acid N-hydroxysuccinimide ester (SPDP) as reported by Pierschbacher et al., Proc. Natl. Acad. USA, 80:1224-1227 (1983). Microtiter plates were coated with 20 µg/ml HSA for 2 hr. at room temperature, washed once with PBS and derivatized with 10 µg/ml SPDP for 1 hr. After washing, 100 µl of a 100 µg/ml cysteine containing peptide solution which had been recently dissolved was added to the wells and allowed to crosslink to the plates overnight at 4 °C. Unbound peptide was removed from plates by washing with PBS. To block non-reacted sites, the plates are coated with 100 µl of a 2.5 mg/ml BSA solution in PBS for 1 hr. at 37 °C. 100 µl of Jurkat cells (2.5 x 10^6 cells/ml) in DMEM plus BSA (2.5 mg/ml) was mixed with an appropriate concentration of the compound to be tested and the mixture was added to peptide coated dishes and incubated for 1 hr. at 37 °C. Generally 100, 20, 5 and 1.25 µM concentrations of the compound were tested.
Following this incubation the plates were washed once with PBS and the attached cells were fixed with 3% paraformaldehyde in PBS and stained with 0.5% toluidine blue in 3.7% formaldehyde. The cells were stained overnight at room temperature and the optical density at 590 nm of toluidine blue stained cells was determined using a vertical pathway spectrophotometer to quantitate attachment (VMAX Kinetic Microplate Reader, Molecular Devices, Menlo Park, CA). This procedure is a modification of a previously published method (Cardarelli et al, J. Biol. Chem., 269:18668-18673 (1994) and Cardarelli et al, Proc. Natl. Acad. Sci. USA, 83:2647-2651 (1986)).

First: O=C(Nc1ccc(C[C@H](NC(=O)[C@H]2CC[C@@H](C(=O)O)C2)C(=O)O)cc1)c1c(Cl)cccc1Cl (mixture of isomers) [Example 112, N-[cis-(3-Carboxycyclopentyl)carbonyl]-4-[(2,6-dichlorobenzoyl)amino]-L-phenylalanine]
Second: O=C(Nc1ccc(C[C@H](NC(=O)[C@@H]2CCC[C@H]2C(=O)O)C(=O)O)cc1)c1c(Cl)cccc1Cl [Example 9]
The pIC50 of the first is higher: 6.30 to 7.10 for the first, 6.00 to 6.30 for the second. The first is the more potent here.

`O=C(O)c1cccc(C(=O)N[C@H]2CCCC[C@H]2C(=O)N[C@@H](Cc2ccc(NC(=O)c3c(Cl)cccc3Cl)cc2)C(=O)O)n1` (relative stereo) [Example 80] and `O=C(O)CNC(=O)Nc1cccc(C(=O)N[C@@H](Cc2ccc(NC(=O)c3c(Cl)cccc3Cl)cc2)C(=O)O)c1` [Example 33, N-[3-[(N'-Carboxymethyl)ureido]benzoyl]-4-[(2,6-dichlorobenzoyl)amino]-L-phenylalanine] fall in the same range of pIC50: 6.30 to 7.10 for the first, 6.30 to 7.10 for the second.

`O=C(COc1ccc(C(=O)O)cc1)N[C@@H](Cc1ccc(NC(=O)c2c(Cl)cccc2Cl)cc1)C(=O)O` [Example 12, N-[(4-carboxyphenoxy)acetyl]-4-[(2,6-dichlorobenzoyl)amino]-L-phenylalanine] and `CC(=O)c1cccc(OC(C)(C)C(=O)N[C@@H](Cc2ccc(NC(=O)c3c(Cl)cccc3Cl)cc2)C(=O)O)c1` [Example 19] fall in the same range of pIC50: 6.00 to 6.30 for the first, 6.00 to 6.30 for the second.

`O=C(O)CCC(=O)Nc1cccc(C(=O)N[C@@H](Cc2ccc(NC(=O)c3c(Cl)cccc3Cl)cc2)C(=O)O)c1` [Example 34] and `CC(=O)CCC(=O)Nc1cccc(C(=O)N[C@@H](Cc2ccc(NC(=O)c3c(Cl)cccc3Cl)cc2)C(=O)O)c1` [Example 39] fall in the same range of pIC50: 6.00 to 6.30 for the first, 6.00 to 6.30 for the second.

`O=C(O)c1cccc(C(=O)Nc2cccc(C(=O)N[C@@H](Cc3ccc(NC(=O)c4c(Cl)cccc4Cl)cc3)C(=O)O)c2)c1` [Example 42] and `O=C(Nc1ccc(C(=O)O)cc1)NC1(C(=O)N[C@@H](Cc2ccc(NC(=O)c3c(Cl)cccc3Cl)cc2)C(=O)O)CCCCC1` [Example 60] fall in the same range of pIC50: 6.00 to 6.30 for the first, 6.00 to 6.30 for the second.

`O=C(O)CNC(=O)NC1(C(=O)N[C@@H](Cc2ccc(NC(=O)c3c(Cl)cccc3Cl)cc2)C(=O)O)CCCCC1` [Example 54] and `CC1(C)[C@@H](C(=O)N[C@@H](Cc2ccc(OCc3c(Cl)cccc3Cl)cc2)C(=O)O)C[C@H]1C(=O)O` [Example 95, (1S-cis)-N-[(3-Carboxy-2,2-dimethylcyclobutyl)carbonyl]-4-[(2,6-dichlorophenyl)methoxy]-L-phenylalanine] fall in the same range of pIC50: 6.00 to 6.30 for the first, 6.00 to 6.30 for the second.
